The target in one assay is FLT3 kinase (Homo sapiens (Human), UniProt P36888). In words: Competition binding assay (Kd), FLT3. The conditions noted are these: competition binding assay.
The target in another assay is KIT kinase (Homo sapiens (Human), UniProt P10721). Kind of assay: Competition binding assay (Kd), KIT. Conditions: competition binding assay. The method, boiled down: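 Kd derived from eleven-point threefold serial dilutions of compound competing with bead-bound ligand for kinase; bound kinase eluted and measured by quantitative PCR. Kinase supplied either as a T7 phage fusion or expressed in HEK-293 cells with a DNA tag; DMSO served as control.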

The next assay has as its target FLT3-ITD (Homo sapiens (Human), UniProt P36888, INS600HVDFREYEYD). In words: pFLT3 MSD assay, Ba/F3 FLT3-ITD. In kind it is cell-based. Conditions: Ba/F3 FLT3-ITD cells, 2 hours, read-out: BaF3-FLT3-ITD pFlt3 IC50.

FLT3-ITD, sequence (P36888 other isoform, or with tags, fused parts or gaps limits assumed, stated change not applied): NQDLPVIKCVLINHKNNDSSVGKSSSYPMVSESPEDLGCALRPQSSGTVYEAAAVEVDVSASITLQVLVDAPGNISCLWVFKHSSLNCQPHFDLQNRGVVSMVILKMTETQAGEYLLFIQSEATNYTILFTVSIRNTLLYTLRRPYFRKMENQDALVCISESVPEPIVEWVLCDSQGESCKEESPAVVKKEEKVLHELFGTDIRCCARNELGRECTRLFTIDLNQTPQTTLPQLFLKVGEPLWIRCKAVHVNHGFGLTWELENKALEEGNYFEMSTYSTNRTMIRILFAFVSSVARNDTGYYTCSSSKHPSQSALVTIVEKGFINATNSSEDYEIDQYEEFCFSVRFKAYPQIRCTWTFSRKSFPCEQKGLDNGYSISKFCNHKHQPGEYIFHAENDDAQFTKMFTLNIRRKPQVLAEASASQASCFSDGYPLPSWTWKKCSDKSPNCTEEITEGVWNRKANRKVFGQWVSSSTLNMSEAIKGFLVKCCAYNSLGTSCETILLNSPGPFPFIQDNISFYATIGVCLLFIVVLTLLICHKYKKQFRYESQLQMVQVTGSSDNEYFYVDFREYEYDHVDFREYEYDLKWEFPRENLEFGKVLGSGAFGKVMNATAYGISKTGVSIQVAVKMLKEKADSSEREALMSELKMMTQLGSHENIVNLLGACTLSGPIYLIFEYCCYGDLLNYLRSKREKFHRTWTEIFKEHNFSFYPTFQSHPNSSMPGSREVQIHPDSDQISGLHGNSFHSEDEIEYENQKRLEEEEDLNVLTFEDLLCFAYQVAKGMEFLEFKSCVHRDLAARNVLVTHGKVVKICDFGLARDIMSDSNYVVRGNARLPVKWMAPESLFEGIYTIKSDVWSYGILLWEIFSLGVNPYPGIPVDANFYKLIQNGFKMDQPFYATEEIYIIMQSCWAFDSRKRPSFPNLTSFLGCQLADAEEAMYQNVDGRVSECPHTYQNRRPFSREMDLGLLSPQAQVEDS
KIT kinase, sequence (P10721 26-976): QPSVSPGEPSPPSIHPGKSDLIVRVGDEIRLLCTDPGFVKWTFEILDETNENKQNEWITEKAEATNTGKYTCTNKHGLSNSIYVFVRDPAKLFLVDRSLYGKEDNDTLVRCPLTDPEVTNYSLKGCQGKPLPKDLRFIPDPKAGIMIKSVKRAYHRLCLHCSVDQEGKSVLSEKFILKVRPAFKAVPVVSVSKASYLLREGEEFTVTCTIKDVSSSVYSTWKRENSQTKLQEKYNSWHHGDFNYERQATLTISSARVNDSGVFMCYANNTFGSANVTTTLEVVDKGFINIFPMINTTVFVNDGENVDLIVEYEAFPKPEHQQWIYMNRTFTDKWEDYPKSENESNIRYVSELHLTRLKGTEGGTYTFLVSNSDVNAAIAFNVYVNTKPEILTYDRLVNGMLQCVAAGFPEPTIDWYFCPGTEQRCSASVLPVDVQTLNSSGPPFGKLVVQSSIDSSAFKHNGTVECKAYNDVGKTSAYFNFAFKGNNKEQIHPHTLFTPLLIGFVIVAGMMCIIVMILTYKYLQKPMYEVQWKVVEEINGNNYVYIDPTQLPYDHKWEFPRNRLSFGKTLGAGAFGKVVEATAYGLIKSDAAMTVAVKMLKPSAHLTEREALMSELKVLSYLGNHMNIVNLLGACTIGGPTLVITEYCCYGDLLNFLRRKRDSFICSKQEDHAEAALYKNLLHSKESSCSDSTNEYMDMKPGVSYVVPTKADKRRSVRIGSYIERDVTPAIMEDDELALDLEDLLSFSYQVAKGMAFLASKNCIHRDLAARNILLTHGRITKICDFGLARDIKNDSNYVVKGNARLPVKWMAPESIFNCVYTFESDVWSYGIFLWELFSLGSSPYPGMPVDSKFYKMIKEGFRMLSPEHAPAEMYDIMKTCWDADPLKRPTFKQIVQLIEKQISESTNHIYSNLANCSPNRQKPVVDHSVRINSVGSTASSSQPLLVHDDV
FLT3 kinase, sequence (P36888 27-993): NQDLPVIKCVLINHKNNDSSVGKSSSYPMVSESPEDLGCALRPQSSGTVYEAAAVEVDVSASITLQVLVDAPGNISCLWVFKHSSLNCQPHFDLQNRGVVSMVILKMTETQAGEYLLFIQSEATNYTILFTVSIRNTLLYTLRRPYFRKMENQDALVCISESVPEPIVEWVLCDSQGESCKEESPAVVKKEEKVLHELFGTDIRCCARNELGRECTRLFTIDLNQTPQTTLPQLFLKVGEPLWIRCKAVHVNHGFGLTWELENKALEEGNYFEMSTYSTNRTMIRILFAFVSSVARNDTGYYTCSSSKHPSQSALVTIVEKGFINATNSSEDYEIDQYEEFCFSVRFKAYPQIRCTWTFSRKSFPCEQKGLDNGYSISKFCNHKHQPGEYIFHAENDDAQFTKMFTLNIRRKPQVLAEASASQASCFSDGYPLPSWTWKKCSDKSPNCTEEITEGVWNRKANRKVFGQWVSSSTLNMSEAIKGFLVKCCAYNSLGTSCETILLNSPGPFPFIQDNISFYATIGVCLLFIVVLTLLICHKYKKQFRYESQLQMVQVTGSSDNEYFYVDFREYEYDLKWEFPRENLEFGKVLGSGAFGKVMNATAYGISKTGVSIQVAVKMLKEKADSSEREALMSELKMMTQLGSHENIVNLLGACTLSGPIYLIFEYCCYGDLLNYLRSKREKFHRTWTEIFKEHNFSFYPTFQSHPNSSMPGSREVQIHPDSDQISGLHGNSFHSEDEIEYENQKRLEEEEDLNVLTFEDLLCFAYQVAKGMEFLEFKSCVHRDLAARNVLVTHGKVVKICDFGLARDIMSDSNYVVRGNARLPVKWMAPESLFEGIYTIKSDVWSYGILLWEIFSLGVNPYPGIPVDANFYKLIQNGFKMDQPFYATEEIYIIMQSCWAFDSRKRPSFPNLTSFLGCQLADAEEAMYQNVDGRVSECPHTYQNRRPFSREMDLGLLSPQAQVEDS
Method for FLT3 kinase: The liganded beads were blocked with excess biotin and washed with blocking buffer (SeaBlock (Pierce), 1% BSA, 0.05% Tween 20, 1 mM DTT) to remove unbound ligand and to reduce non-specific binding. […] Test compounds were prepared as 100× stocks in DMSO and diluted into the aqueous environment. Kds were determined using an eleven point threefold serial dilutions. DMSO or control compounds were was added to control assays lacking a test compound. […] The kinase concentration in the eluates was measured by quantitative PCR.
A selectivity score (S35) is a quantitative measure of selectivity of a compound against a panel of kinases. […] Percent of control (POC) is calculated by subtracting the signal of the control compound (POC=0) from the signal of the test compound and dividing the outcome by the signal of DMSO (POC=100) minus the signal of the control compound.

For `COc1cc2nc(-c3ccc(CC(=O)Nc4cc(C5(C(F)(F)F)CC5)on4)c(F)c3)cnc2cc1OCCN1CCCC1` [Example 134, 2-[2-fluoro-4-[7-methoxy-6-(2-pyrrolidin-1-ylethoxy)quinoxalin-2-yl]phenyl]-N-[5-[1-(trifluoromethyl)cyclo-propyl]isoxazol-3-yl]acetamide], the Kd at FLT3 kinase and at KIT kinase was under 5 nM each time. The IC50 (in general, the concentration that inhibits the measured activity by half) at FLT3-ITD is under 10 nM.
As to `COc1cc2nc(C(N)=O)c(-c3ccc(CC(=O)Nc4cc(C5(C(F)(F)F)CC5)on4)c(F)c3)nc2cc1OC` [Example 135, 3-[3-fluoro-4-[2-oxo-2-[[5-[1-(trifluoro-methyl)cyclopropyl]isoxazol-3-yl]amino]ethyl]phenyl]-6,7-dimethoxy-quinoxaline-2-carboxamide], the Kd at FLT3 kinase and on KIT kinase was over 50 nM in each case. Further, the IC50 on FLT3-ITD is over 50 nM.
As for `COc1cc2nc(-c3ccc(CC(=O)Nc4cc(C5(C(F)(F)F)CC5)on4)c(F)c3)cnc2cc1OCCOC(=O)N(C)C` [Example 136, 2-[2-[3-fluoro-4-[2-oxo-2-[[5-[1-(trifluoro-methyl)cyclopropyl]isoxazol-3-yl]amino]ethyl]phenyl]-7-methoxy-quinoxalin-6-yl]oxyethyl N,N-dimethylcarbamate], the Kd (in general, the constant that tells how readily two partners part at equilibrium) was under 5 nM at FLT3 kinase and 5 to 20 nM on KIT kinase. Moreover, at FLT3-ITD, the 50% inhibitory concentration (IC50) is under 10 nM.
In the same order, the values of `COc1cc2nc(CO)c(-c3ccc(CC(=O)Nc4cc(C5(C(F)(F)F)CC5)on4)c(F)c3)nc2cc1OC` [Example 137, 2-[2-fluoro-4-[3-(hydroxymethyl)-6,7-dimethoxy-quinoxalin-2-yl]phenyl]-N-[5-[1-(trifluoro-methyl)cyclopropyl]isoxazol-3-yl]acetamide] are under 5 nM, under 5 nM and under 10 nM.
Consider `COc1cc2ncc(-c3ccc(CC(=O)Nc4cc(C(C)(C)C(F)(F)F)on4)c(F)c3)c(Cl)c2cc1OC` [Example 138, 2-[4-(4-chloro-6,7-dimethoxy-3-quinolyl)-2-fluoro-phenyl]-N-[5-(2,2,2-trifluoro-1,1-dimethyl-ethyl)isoxazol-3-yl]acetamide], for which the dissociation constant (Kd) at FLT3 kinase and on KIT kinase was under 5 nM each time. Further, the IC50 on FLT3-ITD was under 10 nM.
Take `COc1cc2ncc(-c3ccc(CC(=O)Nc4cc(C(C)(C)C)nn4C)c(F)c3)nc2cc1OC` [Example 139, N-(5-tert-butyl-2-methyl-pyrazol-3-yl)-2-[4-(6,7-dimethoxyquinoxalin-2-yl)-2-fluoro-phenyl]acetamide]: the dissociation constant Kd at FLT3 kinase and at KIT kinase was under 5 nM in each case. Further, at FLT3-ITD, the IC50 was under 10 nM.
With `COc1cc2ncc(-c3ccc(CC(=O)Nc4cc(C(C)(C)C)nn4-c4ccccc4)c(F)c3)nc2cc1OC` [Example 140, N-(5-tert-butyl-2-phenyl-pyrazol-3-yl)-2-[4-(6,7-dimethoxyquinoxalin-2-yl)-2-fluoro-phenyl]acetamide], the dissociation constant (Kd) at FLT3 kinase is under 5 nM; on KIT kinase, 5 to 20 nM. In addition, on FLT3-ITD, the IC50 was under 10 nM.
In the same order, the values of `COc1cc2ncc(-c3ccc(CC(=O)Nc4cc(C(C)(C)C(F)(F)F)on4)c(F)c3)c(N=[N+]=[N-])c2cc1OC` [Example 141, 2-[4-(4-azido-6,7-dimethoxy-3-quinolyl)-2-fluoro-phenyl]-N-[5-(2,2,2-trifluoro-1,1-dimethyl-ethyl)isoxazol-3-yl]acetamide] are under 5 nM, 5 to 20 nM and under 10 nM.
In the same order, the values of `CCN1CC(Oc2cc3ncc(-c4ccc(CC(=O)Nc5cc(C6(C(F)(F)F)CC6)on5)c(F)c4)nc3cc2OC)C1` [Example 142, 2-[4-[6-(1-ethylazetidin-3-yl)oxy-7-methoxy-quinoxalin-2-yl]-2-fluoro-phenyl]-N-[5-[1-(trifluoro-methyl)cyclopropyl]isoxazol-3-yl]acetamide] are under 5 nM, under 5 nM and under 10 nM.
`COc1cc2ncc(-c3ccc(CC(=O)Nc4cc(C(C)(C)C(F)(F)F)on4)c(F)c3)c(N)c2cc1OC` [Example 143, 2-[4-(4-amino-6,7-dimethoxy-3-quinolyl)-2-fluoro-phenyl]-N-[5-(2,2,2-trifluoro-1,1-dimethyl-ethyl)isoxazol-3-yl]acetamide]: the equilibrium dissociation constant (Kd) was under 5 nM at FLT3 kinase and 5 to 20 nM on KIT kinase. In addition, the 50% inhibitory concentration (IC50) at FLT3-ITD lay within 10 to 20 nM.
In the same order, the values of `COc1cc2nc(-c3ccc(CC(=O)Nc4cc(C5(C(F)(F)F)CC5)on4)c(F)c3)cnc2cc1OC1COC1` [Example 144, 2-[2-fluoro-4-[7-methoxy-6-(oxetan-3-yloxy)quinoxalin-2-yl]phenyl]-N-[5-[1-(trifluoro-methyl)cyclopropyl]isoxazol-3-yl]acetamide] are under 5 nM, under 5 nM and under 10 nM.
With `COc1cc2ncc(-c3ccc(CC(=O)Nc4cc(C(C)(C)C(F)(F)F)on4)c(F)c3)c(OC)c2cc1OC` [Example 145, 2-[2-fluoro-4-(4,6,7-trimethoxy-3-quinolyl)phenyl]-N-[5-(2,2,2-trifluoro-1,1-dimethyl-ethyl)isoxazol-3-yl]acetamide], the dissociation constant (Kd) is 5 to 20 nM on FLT3 kinase and over 50 nM on KIT kinase. The IC50 on FLT3-ITD was over 50 nM.
With `COc1cc2nc(Cl)c(-c3ccc(CC(=O)Nc4cc(C5(C(F)(F)F)CC5)on4)c(F)c3)nc2cc1OC` [Example 146, 2-[4-(3-chloro-6,7-dimethoxy-quinoxalin-2-yl)-2-fluoro-phenyl]-N-[5-[1-(trifluoromethyl)cyclo-propyl]isoxazol-3-yl]acetamide], the dissociation constant (Kd) on FLT3 kinase and on KIT kinase was under 5 nM in each case. The IC50 on FLT3-ITD is under 10 nM.
As to `COc1cc2nc(-c3ccc(CC(=O)Nc4cc(C(C)(C)C(F)(F)F)on4)c(F)c3)cnc2cc1OC1COC1` [Example 147, 2-[2-fluoro-4-[7-methoxy-6-(oxetan-3-yloxy)quinoxalin-2-yl]phenyl]-N-[5-(2,2,2-trifluoro-1,1-dimethyl-ethyl)isoxazol-3-yl]acetamide], the Kd at FLT3 kinase and at KIT kinase was under 5 nM in each case. Moreover, the IC50 on FLT3-ITD is under 10 nM.
Regarding `COc1cc2nc(-c3ccc(CC(=O)Nc4cc(C(C)(C)C(F)(F)F)on4)c(F)c3)cnc2cc1OC1CNC1` [Example 148, 2-[4-[6-(azetidin-3-yloxy)-7-methoxy-quinoxalin-2-yl]-2-fluoro-phenyl]-N-[5-(2,2,2-trifluoro-1,1-dimethyl-ethyl)isoxazol-3-yl]acetamide], the Kd at FLT3 kinase was under 5 nM; at KIT kinase, 5 to 20 nM. Also, the concentration for half-maximal inhibition (IC50) at FLT3-ITD was under 10 nM.
Turning to `CCN1CC(Oc2cc3ncc(-c4ccc(CC(=O)Nc5cc(C(C)(C)C(F)(F)F)on5)c(F)c4)nc3cc2OC)C1` [Example 149, 2-[4-[6-(1-ethylazetidin-3-yl)oxy-7-methoxy-quinoxalin-2-yl]-2-fluoro-phenyl]-N-[5-(2,2,2-trifluoro-1,1-dimethyl-ethyl)isoxazol-3-yl]acetamide], the Kd on FLT3 kinase and at KIT kinase was under 5 nM throughout. For the same compound, at FLT3-ITD, the concentration for half-maximal inhibition (IC50) is under 10 nM.
With `COc1cc2nc(-c3ccc(CC(=O)Nc4cc(C(C)(C)C(F)(F)F)on4)c(F)c3)cnc2cc1OC1CN(C)C1` [Example 150, 2-[2-fluoro-4-[7-methoxy-6-(1-methylazetidin-3-yl)oxy-quinoxalin-2-yl]phenyl]-N-[5-(2,2,2-trifluoro-1,1-dimethyl-ethyl)isoxazol-3-yl]acetamide], the equilibrium dissociation constant (Kd) at FLT3 kinase and at KIT kinase was under 5 nM in each case. The concentration for half-maximal inhibition (IC50) at FLT3-ITD is under 10 nM.
On to `CC(C)(c1cc(NC(=O)Cc2ccc(-c3cnc4c(N)cccc4c3)cc2F)no1)C(F)(F)F` [Example 151, 2-[4-(8-amino-3-quinolyl)-2-fluoro-phenyl]-N-[5-(2,2,2-trifluoro-1,1-dimethyl-ethyl)isoxazol-3-yl]acetamide], for which the Kd on FLT3 kinase and at KIT kinase was under 5 nM throughout. In addition, the concentration for half-maximal inhibition (IC50) at FLT3-ITD is under 10 nM.
In the case of `COc1cc2nc(O)c(-c3ccc(CC(=O)Nc4cc(C5(C(F)(F)F)CC5)on4)c(F)c3)nc2cc1OC` [Example 152, 2-[4-(6,7-dimethoxy-3-hydroxy-quinoxalin-2-yl)-2-fluoro-phenyl]-N-[5-[1-(trifluoromethyl)cyclo-propyl]isoxazol-3-yl]acetamide], the Kd on FLT3 kinase and on KIT kinase was under 5 nM in each case. Further, the IC50 on FLT3-ITD is under 10 nM.
In the case of `COc1cc2ncc(-c3ccc(CC(=O)Nc4cc(C(C)(C)C)n[nH]4)c(F)c3)nc2cc1OC` [Example 153, N-(3-tert-butyl-1H-pyrazol-5-yl)-2-[4-(6,7-dimethoxyquinoxalin-2-yl)-2-fluoro-phenyl]acetamide], the Kd on FLT3 kinase and on KIT kinase was under 5 nM each time. In addition, on FLT3-ITD, the IC50 is under 10 nM.
Consider `CN(C)C(=O)COc1cc2ncc(-c3ccc(CC(=O)Nc4cc(C5(C(F)(F)F)CC5)on4)c(F)c3)nc2cc1OCC(=O)N(C)C` [Example 154, 2-[4-[6,7-bis[2-(dimethylamino)-2-oxo-ethoxy]quinoxalin-2-yl]-2-fluoro-phenyl]-N-[5-[1-(trifluoromethyl)cyclo-propyl]isoxazol-3-yl]acetamide], for which the equilibrium dissociation constant (Kd) on FLT3 kinase and on KIT kinase was under 5 nM in each case. Also, the half-inhibitory concentration (IC50) at FLT3-ITD was under 10 nM.
For the compound `COc1ccc2ncc(-c3ccc(CC(=O)Nc4cc(C5(C(F)(F)F)CC5)on4)c(F)c3)nc2n1` [Example 155, 2-[2-fluoro-4-(6-methoxypyrido[2,3-b]pyrazin-3-yl)phenyl]-N-[5-[1-(trifluoromethyl)cyclo-propyl]isoxazol-3-yl]acetamide OR 2-[2-fluoro-4-(6-methoxypyrido[2,3-b]pyrazin-2-yl)phenyl]-N-[5-[1-(trifluoromethyl)cyclo-propyl]isoxazol-3-yl]acetamide], the Kd at FLT3 kinase was under 5 nM; on KIT kinase it was 5 to 20 nM. For the same compound, the IC50 at FLT3-ITD is under 10 nM.

Source of the values: patent US9725465B2, “Biaryl acetamide compounds and methods of use thereof” (Ambit Biosciences Corporation, priority 2013, dated 2017).
